Literature values, collected in patent US20190275102A1, “STERILE INJECTABLE COMPOSITION COMPRISING CARFILZOMIB” (CADILA HEALTHCARE LIMITED, priority 2018, published 2019).

Compound: CC(C)C[C@H](NC(=O)[C@H](CCc1ccccc1)NC(=O)CN1CCOCC1)C(=O)N[C@@H](Cc1ccccc1)C(=O)N[C@@H](CC(C)C)C(=O)[C@@]1(C)CO1 [Carfilzomib, (2S)—N—((S)-1-((S)-4-methyl-1-((R)-2-methytoxiran2-yl)-1-oxopentan-2-ylcarbamoyl)-2-phenylethyl)-2-((S)-2-(2-morpholinoacetamido)-4-phenylbutanamido)-4-methylpentanamide]
- solubility in acidic conditions (acidic conditions): very slightly soluble
- solubility in water (water): practically insoluble

Compound: sulfobutylether beta-cyclodextrin
- single dose showing renal tolerance (kidney; animal trials, single-dose studies, i.v.): up to 2000 mg/kg
- dose with evidence of renal cellular toxicity (kidney; in vivo): ≥ 160 mg/kg/day
- renal function (kidney; in vivo): not impaired
